Experiments:
[1] = target: T1, survivin (Homo sapiens, UniProt O15392); experiment: fluorescence intensity titration of the intrinsically fluorescent ligand with survivin; also CONA bead imaging and affinity resin capture; assay type: binding
T1 construct: gene BIRC5; His6-tagged full length survivin

[2] = target: T1, survivin; experiment: fluorescence intensity titration of the intrinsically fluorescent ligand with survivin ([…] fit); also CONA bead imaging, affinity resin capture, native PAGE; assay type: binding

T1 sequence (O15392 whole entry): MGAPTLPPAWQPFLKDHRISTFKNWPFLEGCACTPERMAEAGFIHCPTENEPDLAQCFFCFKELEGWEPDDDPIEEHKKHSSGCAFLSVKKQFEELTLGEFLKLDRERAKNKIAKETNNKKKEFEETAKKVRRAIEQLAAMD

COc1cc2[nH]c1/C=C1/C=CC(=N1)CCCCCCCCCc1ccc-2[nH]1 [compound 1, cyclononylprodigiosin]
Kd [1]: 149 ± 8.3 µM

CCCCCC1=C/C(=C/c2[nH]c(-c3ccc[nH]3)cc2OC)N=C1C [compound 2, prodigiosin]
Kd [2]: 11.5 ± 3.1 µM
